What was measured:
[1] = Tetrazolium-based cell viability assay (cytotoxicity); conditions: human
[2] = tested on: human cytomegalovirus (HCMV) AD169 strain; experiment: Antiviral activity against HCMV in MRC5 fibroblasts (virus yield, fluorescent focus assay); assay type: cell-based; conditions: Human betaherpesvirus 5, HCMV AD169, 1 infectious unit/cell, treated 2 h after infection, virus in medium at 96 h
SIRT1 = target: T1, SIRT1 (Homo sapiens, UniProt Q96EB6); experiment: Sirtuin deacetylase enzyme activity assay (Cayman Chemical), compound screen; assay type: biochemical; conditions: compound at 50 μM; Z-score of change in fluorescent signal; + increase, − decrease
T1 construct: purchased Cayman Chemical
T1 sequence (Q96EB6 1-747): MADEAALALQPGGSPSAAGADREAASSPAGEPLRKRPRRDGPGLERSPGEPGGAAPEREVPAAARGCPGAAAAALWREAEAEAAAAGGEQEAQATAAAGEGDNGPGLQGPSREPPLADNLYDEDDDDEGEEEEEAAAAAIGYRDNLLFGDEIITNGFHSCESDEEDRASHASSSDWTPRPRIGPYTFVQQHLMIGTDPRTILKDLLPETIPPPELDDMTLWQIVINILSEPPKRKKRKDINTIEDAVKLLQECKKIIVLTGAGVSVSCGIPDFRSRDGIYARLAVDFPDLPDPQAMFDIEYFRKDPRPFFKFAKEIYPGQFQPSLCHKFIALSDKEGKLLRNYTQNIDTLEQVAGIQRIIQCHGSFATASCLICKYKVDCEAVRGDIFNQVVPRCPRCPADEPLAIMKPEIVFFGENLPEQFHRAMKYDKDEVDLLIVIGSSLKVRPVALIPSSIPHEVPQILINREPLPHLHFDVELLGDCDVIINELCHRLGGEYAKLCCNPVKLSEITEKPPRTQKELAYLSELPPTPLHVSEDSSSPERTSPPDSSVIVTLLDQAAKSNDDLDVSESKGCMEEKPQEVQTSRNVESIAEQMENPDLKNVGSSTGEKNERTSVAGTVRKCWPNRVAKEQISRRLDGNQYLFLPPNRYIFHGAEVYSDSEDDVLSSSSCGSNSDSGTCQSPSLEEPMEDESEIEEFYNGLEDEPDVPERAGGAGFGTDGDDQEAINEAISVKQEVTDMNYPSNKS
Excerpt: (§1) Sirtuins have been identified as innate viral restriction factors and it has been previously shown that drugs that modulate the activity of these enzymes block the production of multiple viruses in culture (see, e.g., WO 2012/106509). Sirtuins are NAD-dependent enzymes that regulate the activity of target proteins by post-translational modifications and thereby control key cellular events (see, e.g., Haigis and Sinclair (2010) Ann Rev Pathol Mech Dis 5:253-95). SIRT1, SIRT2, SIRT3 and SIRT6 have shown a detectable deacetylase activity in well-established biochemical assays that utilize recombinant SIRT1, SIRT2, SIRT3, and SIRT6 enzymes and fluorophore-conjugated acetyl-peptides. As described in the Examples below, the deacetylase activity of these sirtuins were used as a surrogate to identify compounds having broad-range antiviral activity.
(§2) A publically disclosed, small molecule library consisting of approximately 13,000 compounds was screened using a commercially available (Cayman Chemical) enzyme activity assay. Deacetylase activity of sirtuins SIRT1, SIRT2, SIRT3, and SIRT6 was used as a surrogate to identify compounds with the potential for having broad-range antiviral activity. The compounds were tested at a single concentration (50 μM) in microtiter plates and their activity against the four sirtuins was recorded as a change in fluorescent signal intensity. […] Activation of sirtuin activity generated positive Z-scores and inhibition of sirtuin activity produced negative Z-scores.

SIRT2 = target: T2, SIRT2 (Homo sapiens, UniProt Q8IXJ6); experiment: as above; assay type: biochemical; conditions: compound at 50 μM; Z-score of change in fluorescent signal; + increase, − decrease
T2 construct: purchased Cayman Chemical
T2 sequence (Q8IXJ6 1-389): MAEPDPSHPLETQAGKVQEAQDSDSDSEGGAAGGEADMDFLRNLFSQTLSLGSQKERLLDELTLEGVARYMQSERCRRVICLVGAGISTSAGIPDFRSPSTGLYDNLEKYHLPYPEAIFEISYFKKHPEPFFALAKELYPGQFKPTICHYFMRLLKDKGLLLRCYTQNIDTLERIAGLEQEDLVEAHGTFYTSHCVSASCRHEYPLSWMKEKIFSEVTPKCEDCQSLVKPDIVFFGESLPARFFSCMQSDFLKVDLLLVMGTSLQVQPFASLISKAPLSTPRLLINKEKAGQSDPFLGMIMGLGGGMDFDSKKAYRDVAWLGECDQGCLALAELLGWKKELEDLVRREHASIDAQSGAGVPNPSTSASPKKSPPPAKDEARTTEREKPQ
Excerpt: as §1, §2

SIRT6 = target: T3, SIRT6 (Homo sapiens, UniProt Q8N6T7); experiment: as above; assay type: biochemical; conditions: compound at 50 μM; Z-score of change in fluorescent signal; + increase, − decrease
T3 construct: purchased Cayman Chemical
T3 sequence (Q8N6T7 whole entry): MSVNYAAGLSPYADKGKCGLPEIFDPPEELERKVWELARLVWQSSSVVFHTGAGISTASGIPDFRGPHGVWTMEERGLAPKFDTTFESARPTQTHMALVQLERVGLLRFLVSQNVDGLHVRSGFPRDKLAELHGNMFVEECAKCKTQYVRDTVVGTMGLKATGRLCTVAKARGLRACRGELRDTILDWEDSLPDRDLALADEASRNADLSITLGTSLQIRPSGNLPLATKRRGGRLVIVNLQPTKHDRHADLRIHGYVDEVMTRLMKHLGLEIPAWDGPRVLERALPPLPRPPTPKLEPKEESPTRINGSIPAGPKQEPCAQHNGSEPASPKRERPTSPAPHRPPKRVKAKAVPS
Excerpt: as §1, §2

SIRT3 = target: T4, SIRT3 (Homo sapiens, UniProt Q9NTG7); experiment: as above; assay type: biochemical; conditions: compound at 50 μM; Z-score of change in fluorescent signal; + increase, − decrease
T4 construct: purchased Cayman Chemical
T4 sequence (Q9NTG7 1-399): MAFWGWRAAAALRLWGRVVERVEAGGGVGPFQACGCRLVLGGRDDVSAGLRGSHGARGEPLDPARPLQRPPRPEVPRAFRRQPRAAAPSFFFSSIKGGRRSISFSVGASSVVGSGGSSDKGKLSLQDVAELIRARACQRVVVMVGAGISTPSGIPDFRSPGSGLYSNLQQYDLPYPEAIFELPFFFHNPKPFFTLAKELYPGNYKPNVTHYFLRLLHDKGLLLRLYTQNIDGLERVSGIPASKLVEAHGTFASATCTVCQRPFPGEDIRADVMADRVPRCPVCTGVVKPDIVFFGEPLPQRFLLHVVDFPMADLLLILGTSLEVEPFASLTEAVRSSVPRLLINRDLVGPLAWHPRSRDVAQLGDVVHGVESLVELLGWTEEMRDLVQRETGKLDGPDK
Excerpt: as §1, §2

Row | SMILES | CC50 at 96 h [1] [µM] | IC50 [2] [µM] | IC90 [2] [µM] | SIRT1 (change in sirtuin deacetylase activity, Z-score class) (SIRT1) | SIRT2 (change in sirtuin deacetylase activity, Z-score class) (SIRT2) | SIRT6 (change in sirtuin deacetylase activity, Z-score class) (SIRT6) | SIRT3 (change in sirtuin deacetylase activity, Z-score class) (SIRT3)
1 | CC(c1cnc2ccccc2c1)C(F)C1N(Cc2ccccc2)C(=O)c2cccnc2N1C (centres unmarked) | > 50 | 1.74 | 16.1 | +++ (Z-score ≧ 3 = +++) | +++ (Z-score ≧ 3 = +++) | +++ (Z-score ≧ 3 = +++) | +++ (Z-score ≧ 3 = +++)
2 | CC(c1ccccc1Cl)C1CN(C2CCC(O)CC2)S(=O)(=O)c2c(F)cccc2O1 (centres unmarked) | > 50 | 2.33 | 31.3 | na (−2 ≦ Z-score < 2 = no activity (na)) | na (−2 ≦ Z-score < 2 = no activity (na)) | +++ (Z-score ≧ 3 = +++) | na (−2 ≦ Z-score < 2 = no activity (na))
3 | CC(c1ccc2nccnc2c1)c1cnc(N2CCc3ccccc3C2)s1 (centres unmarked) | > 50 | 4.58 | 5.95 | −− (−3 < Z-score ≦ −2 = −−) | −− (−3 < Z-score ≦ −2 = −−) | na (−2 ≦ Z-score < 2 = no activity (na)) | na (−2 ≦ Z-score < 2 = no activity (na))
4 | CC(c1cnc2ccccc2c1)C(F)CNc1cnc2ccccc2c1 (centres unmarked) | > 50 | 6.89 | 17.6 | na (−2 ≦ Z-score < 2 = no activity (na)) | na (−2 ≦ Z-score < 2 = no activity (na)) | +++ (Z-score ≧ 3 = +++) | na (−2 ≦ Z-score < 2 = no activity (na))
5 | CCOc1cc(C)n(C(CNc2cnc3ccccc3c2)C(C)c2cccnc2C)n1 (centres unmarked) | > 50 | 8.26 | 33.9 | ++ (2 ≦ Z-score < 3 = ++) | ++ (2 ≦ Z-score < 3 = ++) | +++ (Z-score ≧ 3 = +++) | +++ (Z-score ≧ 3 = +++)
6 | Cc1cc(-c2ccccc2)nn1C1CN(Cc2cccc(C(F)(F)F)c2)C(=O)C1C(C)C (centres unmarked) | 25 to 50 | 8.43 | 18.8 | ++ (2 ≦ Z-score < 3 = ++) | na (−2 ≦ Z-score < 2 = no activity (na)) | ++ (2 ≦ Z-score < 3 = ++) | na (−2 ≦ Z-score < 2 = no activity (na))
7 | CCOc1cc(C(C)C)n(C(CNc2cnc3ccccc3c2)C(C)c2cccnc2C)n1 (centres unmarked) | > 50 | 9.32 | 41.3 | +++ (Z-score ≧ 3 = +++) | na (−2 ≦ Z-score < 2 = no activity (na)) | +++ (Z-score ≧ 3 = +++) | +++ (Z-score ≧ 3 = +++)
8 | CC(c1ccncc1)C(O)Cn1cc(-c2cc(Cl)cnc2N)nn1 (centres unmarked) | > 50 | 9.71 | 33.8 | +++ (Z-score ≧ 3 = +++) | na (−2 ≦ Z-score < 2 = no activity (na)) | +++ (Z-score ≧ 3 = +++) | ++ (2 ≦ Z-score < 3 = ++)
9 | CCCN1CC(C(C)c2ccccc2OC)N(c2cccnc2)C1=O (centres unmarked) | > 50 | 9.91 | 32.2 | na (−2 ≦ Z-score < 2 = no activity (na)) | na (−2 ≦ Z-score < 2 = no activity (na)) | +++ (Z-score ≧ 3 = +++) | na (−2 ≦ Z-score < 2 = no activity (na))
10 | CNC(=O)c1cccc(CN(CCC(C)C(C)C)S(=O)(=O)c2c(C)noc2C)c1 (centres unmarked) | 25 to 50 | 10.2 | 32.8 | na (−2 ≦ Z-score < 2 = no activity (na)) | na (−2 ≦ Z-score < 2 = no activity (na)) | +++ (Z-score ≧ 3 = +++) | na (−2 ≦ Z-score < 2 = no activity (na))
11 | Cc1nn(C2CN(CCn3ccnc3)C(=O)C2c2ccccc2)c(C)c1C (centres unmarked) | > 50 | 11 | 38.5 | −−− (Z-score ≦ −3 = −−−) | −−− (Z-score ≦ −3 = −−−) | na (−2 ≦ Z-score < 2 = no activity (na)) | −−− (Z-score ≦ −3 = −−−)
12 | CNC(=O)c1cccc(CN(CCC(C)C(C)C)S(=O)(=O)c2cn(C)cn2)c1 (centres unmarked) | > 50 | 13.4 | 41.8 | na (−2 ≦ Z-score < 2 = no activity (na)) | ++ (2 ≦ Z-score < 3 = ++) | na (−2 ≦ Z-score < 2 = no activity (na)) | na (−2 ≦ Z-score < 2 = no activity (na))
13 | CC(c1ccc(F)cc1)C(O)Cn1cc(-c2cc(Cl)cnc2N)nn1 (centres unmarked) | > 50 | 15.1 | 35.6 | +++ (Z-score ≧ 3 = +++) | na (−2 ≦ Z-score < 2 = no activity (na)) | ++ (2 ≦ Z-score < 3 = ++) | na (−2 ≦ Z-score < 2 = no activity (na))
14 | Cc1ccccc1C(C)C(CO)NC(=O)c1cn(C)cn1 (centres unmarked) | > 50 | 15.8 | 41.9 | −−− (Z-score ≦ −3 = −−−) | −−− (Z-score ≦ −3 = −−−) | −− (−3 < Z-score ≦ −2 = −−) | na (−2 ≦ Z-score < 2 = no activity (na))

— patent publication US20150335657A1, “Methods for Modulating Sirtuin Enzymes” (The Trustees of Princeton University, priority 2014, published 2015)
